Here are results for one molecule from patent US20150079176A1, “ANTI-OXIDANT SYNERGY FORMULATION NANOEMULSIONS TO TREAT CANCER” (University of Massachusetts Lowell, priority 2005, published 2015).

In test [1] the test system is HTB-20. Description: HTB-20 cell culture growth (Coulter Counter cell counting). Type of test: cell-based, Human. The procedure:
(§1) Human breast cancer cell lines MCF-7 and HTB-20 were subcultured in flasks accompanied by daily changes of medium comprising RPMI 1640 supplemented with fetal bovine serum (10%, v/v). The cultures were maintained in a humidified chamber at 37° C. with 5% CO2 and 95% air. The cells were harvested at confluency by trypsinzation and suspended at a cell density of 200,000 to 300,000 cells/ml in a small volume of the growth medium to be used.
(§2) In a typical experiment in which the effects of the anti-cancer nanoemulsions on cell growth were to be examined, aliquots of the cell suspension containing about 20,000 to 30,000 cells were replicately plated in dishes containing 3 ml of the growth medium consisting of RPMI 1640 supplemented with charcoal-stripped fetal bovine serum (5%, v/v) and of penicillin-streptomycin (10 units and 10 μg, respectively) and mycostatin (2.5 units/ml) and incubated at 37° C. in the humidified chamber. On day 1 when the cell adhered firmly to the bottom surface of the dishes, the medium was aspirated off and the cells then challenged by the anti-cancer nanoemulsions; groups of replicate dishes received 3 ml of fresh growth medium containing either ASF or tamoxifen at the indicated concentrations. The control groups received only the microfluidized nanoemulsion and ASF or tamoxifen in free solution.
(§3) At various time intervals (i.e., Days 1-17), triplicate dishes were withdrawn for cell counting; after removal of the medium by aspiration, the adhered cells were washed twice with 1 ml of Eagles balanced salt solution without Ca^2+ and Mg^2+ and dislodged from the dish by trypsinization involving the incubation of 0.5 ml of trypsin-EDTA solution (IX) for 5 minutes at 37° C., after which the protease reaction was stopped by adding 2.5 ml of a “stop” medium consisting of RPMI 1640 and 5% fetal calf serum. The cells were then collected by centrifugation with subsequent suspension in the medium. An aliquot of the suspension was subjected to cell counting using a Coulter Counter (data expressed as 10^6 cells per dish).

For test [2], the system named is MCF-7. Description: MCF-7 cell culture growth (Coulter Counter cell counting). Type of test: cell-based, Human. The procedure:
as §1, §2, §3

The structures appear in SMILES notation.

As to `CC/C(=C(\c1ccccc1)c1ccc(OCCN(C)C)cc1)c1ccccc1` [Tamoxifen In Free Solution, tamoxifen], the cell count was 4 106 cells per dish in test [1] (HTB-20, 1 day of incubation); 12 106 cells per dish in test [1] (HTB-20, 3 days of incubation); 24 106 cells per dish in test [1] (HTB-20, 5 days of incubation); 28 106 cells per dish in test [1] (HTB-20, 7 days of incubation); 41 106 cells per dish in test [1] (HTB-20, 10 days of incubation); 51 106 cells per dish in test [1] (HTB-20, 12 days of incubation). Besides, the cell count in test [2] (MCF-7, 5 days of incubation) was 5 106 cells per dish; in test [2] (MCF-7, 8 days of incubation) it was 19 106 cells per dish; in test [2] (MCF-7, 10 days of incubation), 25 106 cells per dish; in test [2] (MCF-7, 12 days of incubation), 33 106 cells per dish; in test [2] (MCF-7, 15 days of incubation), 50 106 cells per dish; in test [2] (MCF-7, 17 days of incubation) it was 67.5 106 cells per dish. Besides, the “improvement of time-course of tamoxifen-induced apoptosis” value was 2-10 fold in test [1] (HTB-20, applied as a microfluidized nanoemulsion vs free solution) and 2-10 fold in test [2] (MCF-7, applied as a microfluidized nanoemulsion vs free solution).
